Assay results from patent publication US5371071A, “Peptide and pseudopeptide compounds which are therapeutically active in the blood coagulation cascade” (Adir et Compagnie, priority 1992, dated 1994).

Assay: Anticoagulant activity ex vivo, prothrombin time
Assay type: in vivo, OFA rats
Settings: i.v.
Protocol: OFA rats, fasted or otherwise, are anesthetized with pentobarbital (60 mg/kg i.p.). The carotid and the jugular are exposed and catheterized. The catheters are flushed with citrated (1/40) physiological solution. After installation of the catheters, a sample of 1.5 cm^3 of arterial blood is withdrawn into 0.109M citrate (1/9).
30 minutes later, the test product is admini- stered i.v. in a volume of 1 ml.
Arterial blood samples (1.5 ml) are then withdrawn at 1 min 30 sec, 3 min, 5 min, 15 min, 30 min and 60 min.
As each sample is withdrawn, 1.5 ml of citrated physiological solution is reinjected into the animal via the carotid.
The blood tubes are centrifuged for 15 min at 4000 rpm (preparation of plasma).
100 μl of plasma are incubated with 200 μl of neoplastin calcium. The time of onset of the coagulation phenomenon is measured.

Substance: hirudin
- duration of in vivo activity: 30 min
